Activity calls are given as the source filed them.
Assays:
[1] = biological target: DNA dC->dU-editing enzyme APOBEC-3G (Homo sapiens, UniProt Q9HC16); test: Dose Response confirmation of small molecule APOBEC3G DNA Deaminase Inhibitors via a fluorescence-based single-stranded DNA deaminase assay. [Related pubchem assays (depositor defined):AID493012, AID493028]; assay type: functional
[2] = growth suppression of beta-catenin-knockout colon cells, dose response, cell-based, HCT116, human colon tumor (AID 1045); assay type: functional;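 also: HCT116 colon tumor cells with beta catenin knocked out; cells exposed to compound for 60 hours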
[3] = growth suppression of PTEN-null colon cells, dose response, cell-based, HCT116 PTEN knockout (AID 1047); assay type: functional;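 also: HCT116 colon tumor cells with PTEN knocked out; cells exposed to compound for 60 hours before readout; potency for loss of cell viability measured by luminescence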
[4] = biological target: T1, Polyadenylate-binding protein 1 (Homo sapiens, UniProt P11940); test: PABP1 MLLE–PAM2 interaction inhibitors, dose response, miRNA deadenylation inhibitor project, biochemical, fluorescence polarization, Cy5-PAM2 peptide, secondary (AID 602260); assay type: functional; conditions: read-out: IC50_Mean
T1 sequence (P11940 whole entry): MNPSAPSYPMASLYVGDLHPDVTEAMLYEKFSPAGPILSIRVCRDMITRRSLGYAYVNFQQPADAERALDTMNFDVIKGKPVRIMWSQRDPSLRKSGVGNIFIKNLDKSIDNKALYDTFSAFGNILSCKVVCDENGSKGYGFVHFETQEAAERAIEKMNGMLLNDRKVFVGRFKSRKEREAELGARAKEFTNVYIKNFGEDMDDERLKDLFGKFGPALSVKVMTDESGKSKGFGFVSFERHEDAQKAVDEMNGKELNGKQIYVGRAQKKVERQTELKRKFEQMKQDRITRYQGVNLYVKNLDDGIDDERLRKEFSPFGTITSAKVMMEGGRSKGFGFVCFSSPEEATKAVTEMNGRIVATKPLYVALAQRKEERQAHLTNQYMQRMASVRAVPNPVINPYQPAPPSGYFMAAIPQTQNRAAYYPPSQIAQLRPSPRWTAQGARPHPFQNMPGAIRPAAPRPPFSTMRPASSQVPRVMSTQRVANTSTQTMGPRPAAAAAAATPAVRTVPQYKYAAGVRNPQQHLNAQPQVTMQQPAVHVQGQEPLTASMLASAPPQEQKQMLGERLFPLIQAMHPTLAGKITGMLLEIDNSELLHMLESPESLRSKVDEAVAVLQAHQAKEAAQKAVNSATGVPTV

[5] = biological target: T1, Polyadenylate-binding protein 1; test: PABP1 MLLE–PAM2 binding inhibitor potency, dose response, biochemical, fluorescence polarization, FITC-PAM2 peptide (AID 602259); assay type: functional; conditions: read-out: IC50_Mean
[6] = biological target: Voltage-dependent T-type calcium channel subunit alpha-1H (Homo sapiens, UniProt O95180); assay type: functional;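 also: channel activity triggered by adding a high calcium stimulation buffer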
Chain of Voltage-dependent T-type calcium channel subunit alpha-1H (O95180 whole entry): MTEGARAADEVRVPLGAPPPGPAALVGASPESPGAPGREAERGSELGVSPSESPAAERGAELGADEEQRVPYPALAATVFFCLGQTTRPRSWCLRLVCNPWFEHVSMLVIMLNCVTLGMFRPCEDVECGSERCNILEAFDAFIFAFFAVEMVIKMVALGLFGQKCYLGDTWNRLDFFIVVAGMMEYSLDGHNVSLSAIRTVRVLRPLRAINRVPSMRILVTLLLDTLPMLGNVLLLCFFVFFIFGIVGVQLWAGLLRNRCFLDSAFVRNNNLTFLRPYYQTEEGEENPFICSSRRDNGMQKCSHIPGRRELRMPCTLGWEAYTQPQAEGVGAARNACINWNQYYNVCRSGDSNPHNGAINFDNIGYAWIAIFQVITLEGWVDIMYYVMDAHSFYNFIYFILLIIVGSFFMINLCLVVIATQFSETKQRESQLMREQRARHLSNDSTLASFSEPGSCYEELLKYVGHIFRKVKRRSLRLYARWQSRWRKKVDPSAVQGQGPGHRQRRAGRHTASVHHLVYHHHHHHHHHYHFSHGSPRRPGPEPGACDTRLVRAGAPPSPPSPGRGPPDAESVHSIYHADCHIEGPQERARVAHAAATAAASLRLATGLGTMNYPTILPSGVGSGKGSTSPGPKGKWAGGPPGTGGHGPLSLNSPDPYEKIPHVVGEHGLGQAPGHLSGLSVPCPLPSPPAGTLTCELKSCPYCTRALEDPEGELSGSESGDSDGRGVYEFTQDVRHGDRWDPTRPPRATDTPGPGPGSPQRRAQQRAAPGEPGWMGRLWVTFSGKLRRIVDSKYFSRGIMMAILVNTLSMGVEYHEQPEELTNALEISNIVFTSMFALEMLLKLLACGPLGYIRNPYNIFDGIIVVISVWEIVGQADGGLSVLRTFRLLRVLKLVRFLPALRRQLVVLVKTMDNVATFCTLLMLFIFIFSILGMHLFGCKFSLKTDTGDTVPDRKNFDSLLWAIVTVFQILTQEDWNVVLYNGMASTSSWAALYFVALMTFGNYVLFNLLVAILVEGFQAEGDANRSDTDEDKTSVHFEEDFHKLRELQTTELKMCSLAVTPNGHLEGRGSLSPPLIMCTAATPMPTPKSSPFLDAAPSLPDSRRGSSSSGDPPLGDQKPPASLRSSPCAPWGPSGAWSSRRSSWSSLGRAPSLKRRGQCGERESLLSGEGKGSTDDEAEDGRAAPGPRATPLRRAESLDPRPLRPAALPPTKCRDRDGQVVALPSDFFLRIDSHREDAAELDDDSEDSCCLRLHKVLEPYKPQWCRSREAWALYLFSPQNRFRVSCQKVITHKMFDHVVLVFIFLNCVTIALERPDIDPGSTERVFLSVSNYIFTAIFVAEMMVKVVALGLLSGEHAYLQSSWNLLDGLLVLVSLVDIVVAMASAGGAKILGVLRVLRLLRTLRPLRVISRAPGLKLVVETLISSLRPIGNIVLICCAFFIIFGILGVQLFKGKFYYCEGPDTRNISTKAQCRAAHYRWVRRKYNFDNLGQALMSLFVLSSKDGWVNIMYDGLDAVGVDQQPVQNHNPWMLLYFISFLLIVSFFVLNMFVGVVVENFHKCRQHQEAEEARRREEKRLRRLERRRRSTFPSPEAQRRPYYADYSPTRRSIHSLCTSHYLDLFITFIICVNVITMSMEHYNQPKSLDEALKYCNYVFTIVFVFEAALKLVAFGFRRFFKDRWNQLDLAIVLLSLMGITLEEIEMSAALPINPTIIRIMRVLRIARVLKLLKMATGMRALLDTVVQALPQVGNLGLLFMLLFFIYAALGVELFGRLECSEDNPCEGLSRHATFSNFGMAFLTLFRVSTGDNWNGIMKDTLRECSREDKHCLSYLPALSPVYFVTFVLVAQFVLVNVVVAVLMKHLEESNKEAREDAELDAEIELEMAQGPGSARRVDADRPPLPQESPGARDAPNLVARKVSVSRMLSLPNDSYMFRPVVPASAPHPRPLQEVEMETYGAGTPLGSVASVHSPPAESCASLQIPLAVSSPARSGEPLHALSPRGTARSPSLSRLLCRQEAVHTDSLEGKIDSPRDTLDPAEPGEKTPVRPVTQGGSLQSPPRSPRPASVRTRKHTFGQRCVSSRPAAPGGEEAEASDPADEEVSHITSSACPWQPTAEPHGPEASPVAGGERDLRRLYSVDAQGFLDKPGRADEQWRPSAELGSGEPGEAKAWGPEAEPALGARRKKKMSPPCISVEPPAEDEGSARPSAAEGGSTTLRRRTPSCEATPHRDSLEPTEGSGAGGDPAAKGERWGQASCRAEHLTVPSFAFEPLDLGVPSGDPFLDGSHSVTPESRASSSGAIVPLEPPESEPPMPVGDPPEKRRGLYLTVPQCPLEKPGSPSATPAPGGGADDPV

[7] = biological target: Cyclin-dependent kinase 5/CDK5 activator 1 (Homo sapiens, UniProt Q00535); test: CDK5/p35 kinase inhibitors, dose response, biochemical, cherry-picked samples, set 2 (AID 504545)
Chain of Cyclin-dependent kinase 5/CDK5 activator 1 (Q00535 whole entry): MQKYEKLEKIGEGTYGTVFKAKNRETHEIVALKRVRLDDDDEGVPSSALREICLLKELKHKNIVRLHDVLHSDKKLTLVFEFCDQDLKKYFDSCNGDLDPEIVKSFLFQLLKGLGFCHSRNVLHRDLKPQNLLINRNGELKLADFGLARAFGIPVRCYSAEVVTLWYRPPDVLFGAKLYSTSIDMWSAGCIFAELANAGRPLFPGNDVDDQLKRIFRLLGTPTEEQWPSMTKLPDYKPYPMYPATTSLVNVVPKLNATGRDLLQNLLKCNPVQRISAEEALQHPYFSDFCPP
Chain of Cyclin-dependent kinase 5/CDK5 activator 1 (Q15078 whole entry, further chain): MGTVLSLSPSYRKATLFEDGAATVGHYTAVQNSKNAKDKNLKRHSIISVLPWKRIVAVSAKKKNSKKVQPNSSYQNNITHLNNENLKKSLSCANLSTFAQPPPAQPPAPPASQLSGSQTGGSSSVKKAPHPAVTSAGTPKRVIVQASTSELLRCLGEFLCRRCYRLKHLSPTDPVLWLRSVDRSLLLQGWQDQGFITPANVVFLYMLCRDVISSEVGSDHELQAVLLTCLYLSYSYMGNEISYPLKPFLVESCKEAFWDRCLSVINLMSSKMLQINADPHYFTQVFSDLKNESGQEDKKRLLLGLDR

Protein RecA = biological target: T2, Protein RecA (Mycobacterium tuberculosis, UniProt P9WHJ3); test: Fluorescence Cell-Free Homogeneous Dose Retest to Identify Inhibitors of RecA-Intein Splicing Activity. [Related pubchem assays (depositor defined):AID2097, AID2223, AID489010, AID492950]; assay type: functional
T2 sequence (P9WHJ3 whole entry): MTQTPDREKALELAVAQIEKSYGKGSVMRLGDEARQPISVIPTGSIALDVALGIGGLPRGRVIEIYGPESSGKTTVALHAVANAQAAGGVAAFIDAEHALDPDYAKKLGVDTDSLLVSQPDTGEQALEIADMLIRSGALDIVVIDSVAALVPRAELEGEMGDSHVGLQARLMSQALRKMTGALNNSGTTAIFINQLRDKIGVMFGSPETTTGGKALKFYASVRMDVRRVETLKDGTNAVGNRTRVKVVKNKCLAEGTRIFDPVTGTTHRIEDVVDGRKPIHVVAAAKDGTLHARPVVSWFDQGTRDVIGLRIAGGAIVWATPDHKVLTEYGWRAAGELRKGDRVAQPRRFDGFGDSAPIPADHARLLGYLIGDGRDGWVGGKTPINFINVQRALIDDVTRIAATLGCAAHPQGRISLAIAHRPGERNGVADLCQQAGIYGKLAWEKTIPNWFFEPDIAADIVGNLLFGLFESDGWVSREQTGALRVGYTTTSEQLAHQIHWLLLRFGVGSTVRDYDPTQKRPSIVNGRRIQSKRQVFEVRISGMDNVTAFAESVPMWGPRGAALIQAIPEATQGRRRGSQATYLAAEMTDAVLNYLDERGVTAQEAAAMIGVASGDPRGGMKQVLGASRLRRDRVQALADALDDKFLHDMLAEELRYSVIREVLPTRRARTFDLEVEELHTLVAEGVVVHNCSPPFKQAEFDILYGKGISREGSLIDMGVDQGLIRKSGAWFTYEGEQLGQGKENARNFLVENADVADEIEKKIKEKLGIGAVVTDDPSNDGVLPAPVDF

[8] = inhibitors of SNCA 5'UTR-driven reporter translation, confirmation, H4 neuroglioma cells, luminescence (AID 1988); assay type: functional, cell-based
[9] = inhibitors of firefly luciferase expression or activity, dose response, H4 neuroglioma cells, luminescence (AID 1990); assay type: functional, cell-based
[10] = inhibitors of SNCA 5'UTR-driven translation, confirmation, luminescence, H4 neuroglioblastoma cells, dose confirmation (AID 2454); assay type: functional, cell-based;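 also: H4 neuroglioblastoma cells carrying an alpha-synuclein 5'UTR luciferase reporter; potency for inhibition of the luciferase signal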
[11] = Luminescence Cell-Based Dose Response HTS to Identify Inhibitors of 5'UTR Stem-Loop Driven Prion Protein mRNA Translation in H4 Neuroglioblastoma Cells. [Related pubchem assays: 1827 (Project Summary), 1813 (Primary HTS)]; assay type: functional
[12] = luciferase reporter signal reduction – luminescence, H4-C neuroglioblastoma cells, dose response (AID 2458); assay type: functional, cell-based;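 also: H4 neuroglioblastoma cells stably carrying a luciferase reporter gene fusion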
cells = assay type: functional, cell-based
[13] = biological target: FAD-linked sulfhydryl oxidase ALR (Homo sapiens, UniProt P55789); test: inhibitors of human ALR sulfhydryl oxidase, dose response, biochemical, H2O2 detection, luminescence, cherry-pick (AID 493248)
Chain of FAD-linked sulfhydryl oxidase ALR (P55789 whole entry): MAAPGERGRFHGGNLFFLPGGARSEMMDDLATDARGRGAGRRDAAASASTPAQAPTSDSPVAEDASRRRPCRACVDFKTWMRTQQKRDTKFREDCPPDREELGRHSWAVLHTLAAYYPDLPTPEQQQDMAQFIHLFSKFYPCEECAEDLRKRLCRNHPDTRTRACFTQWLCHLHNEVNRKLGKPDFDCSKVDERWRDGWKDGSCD

[14] = A Cell Based Secondary Assay To Explore Cytotoxicity of Compounds that Sensitize Mycobacterium Tuberculosis to Beta-Lactam Antibiotics.; assay type: functional
[15] = Luminescence Cell-Based Dose Retest to Confirm Inhibitors of Cancer Stem Cells. [Related pubchem assays (depositor defined):AID2717, AID2721]; assay type: functional; conditions: Homo sapiens
[16] = tested on: Streptococcus sp. 'group A'; test: growth inhibition of control SK(-) GAS strain, dose response, counter-screen for streptokinase expression inhibitor project, luminescence, kanamycin, BacTiterGlo, confirmation (AID 1900); assay type: functional, organism-based
Streptokinase A = biological target: T3, Streptokinase A (Streptococcus pyogenes serotype M1, UniProt P10520); test: S. pyogenes streptokinase expression inhibitors, potency, dose response, plasminogen activation absorbance, OD405 (AID 1914); assay type: functional, Streptococcus pyogenes M1 GAS;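 also: secreted streptokinase activity via plasminogen activation per viability signal from cell pellet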
T3 sequence (P10520 whole entry): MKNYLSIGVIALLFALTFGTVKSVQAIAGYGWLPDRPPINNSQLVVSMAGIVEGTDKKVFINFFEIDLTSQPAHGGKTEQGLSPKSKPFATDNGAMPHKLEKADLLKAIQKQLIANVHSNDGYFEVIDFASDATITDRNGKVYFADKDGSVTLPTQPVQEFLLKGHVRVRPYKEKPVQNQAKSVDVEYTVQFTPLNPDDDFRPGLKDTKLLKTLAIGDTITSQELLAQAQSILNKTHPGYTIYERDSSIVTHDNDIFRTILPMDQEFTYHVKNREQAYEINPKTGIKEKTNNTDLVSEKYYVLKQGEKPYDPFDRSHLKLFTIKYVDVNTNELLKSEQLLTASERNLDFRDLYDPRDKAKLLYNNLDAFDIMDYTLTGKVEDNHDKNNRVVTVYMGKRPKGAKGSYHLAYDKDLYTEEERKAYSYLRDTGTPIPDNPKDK

Streptococcus = test: Group A Streptococcus viability loss, dose response, counter-screen for streptokinase expression inhibitor project, luminescence, BacTiterGlo (AID 1915); assay type: functional, organism-based;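 also: potency for reduction of bacterial viability or growth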

Chain of DNA dC->dU-editing enzyme APOBEC-3G (Q9HC16 whole entry): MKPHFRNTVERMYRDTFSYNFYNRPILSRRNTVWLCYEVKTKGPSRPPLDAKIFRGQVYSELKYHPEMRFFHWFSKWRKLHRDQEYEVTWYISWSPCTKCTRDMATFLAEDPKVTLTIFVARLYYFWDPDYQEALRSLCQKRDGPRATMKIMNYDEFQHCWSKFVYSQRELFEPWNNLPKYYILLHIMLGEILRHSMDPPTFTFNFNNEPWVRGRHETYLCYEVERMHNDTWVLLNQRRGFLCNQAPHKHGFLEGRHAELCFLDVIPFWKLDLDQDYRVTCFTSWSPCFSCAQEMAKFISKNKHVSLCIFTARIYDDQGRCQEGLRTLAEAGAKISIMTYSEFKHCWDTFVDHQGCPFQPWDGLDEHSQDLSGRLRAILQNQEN

SMILES: CCCOC(=O)c1c(NC(=O)C2CCCO2)sc(C(=O)OC)c1C (stereo not given)
- IC50 [1]: 69.5 µM (active)
- EC50 [2]: 28.2 µM (active)
- EC50 [3]: 28.7 µM (active)
- IC50 [4]: > 66 µM (inactive)
- IC50 [5]: > 66 µM (inactive)

SMILES: Cn1cccc1Cc1nnc(SCC(=O)Nc2ccc(Cl)cc2)n1-c1ccc(F)cc1
- EC50 [6]: 1.32 µM (active)

SMILES: Cc1n[nH]c(O)c1C(c1ccccc1[N+](=O)[O-])C(C#N)C#N (stereo not given)
- AC50 [7]: 61.1 µM (active)
- EC50 (Protein RecA): 3.93 µM (active)

SMILES: C/C=C(\C)C(=O)OC1C(C)=C2C(C1OC(=O)CCCCC)C(C)(OC(C)=O)CC(OC(=O)CCC)C1(O)C2OC(=O)C1(C)O (stereo not given)
- EC50 [8]: < 0.1 µM (active)
- EC50 [9]: < 0.1 µM (active)
- EC50 [10]: 0.047 µM (active)
- EC50 [11]: < 0.1 µM (active)
- EC50 [12]: 0.051 µM (active)
- EC50 (cells): 0.228 µM (active)

SMILES: Cc1cc(-c2nsc(=O)o2)c(S(C)(=O)=O)s1
- AC50 [7]: 29.3 µM (active)
- AC50 [13]: 3.86 µM (active)

SMILES: COc1cccc(-c2nc(CS(=O)(=O)CC(=O)N3CCc4ccccc4C3)c(C)o2)c1
- EC50 [6]: 10.8 µM (active)

SMILES: COc1cc(OC)cc(-c2cc3ccc(OC)cc3cn2)c1
- CC50 [14]: 21.8 µM (active)
- AC50 [15]: 3.32 µM (active)

SMILES: COc1ccc(OC)c(CCNC(=O)CS(=O)(=O)Cc2nc(-c3ccc(C)cc3)oc2C)c1
- EC50 [6]: 3.8 µM (active)

SMILES: CCCC(=O)N1CCN(c2ccc([N+](=O)[O-])c(NC(C)c3ccccc3)c2)CC1 (stereo not given)
- EC50 [6]: 5.51 µM (active)

SMILES: COc1cc2c(C(=O)N3CCN(c4ccccc4C)CC3)c(C)oc2cc1Br
- EC50 [16]: 4.4 µM (active)
- CC50 [14]: > 40 µM (active)
- EC50 (Streptokinase A): 79.8 µM (active)
- EC50 (Streptococcus): 36 µM (active)

Source: ChEMBL document CHEMBL1201862, “PubChem BioAssay data set” (2004)
